For three molecules, IC50 results are on record in patent US9975907B2, “Pyrimidinones as PI3K inhibitors” (Incyte Corporation, priority 2009, dated 2018).

What is called IC50 is the concentration needed to halve the response being measured. Read a high IC50 as weaker potency.

One assay deals with PI3Kα (Homo sapiens (Human), UniProt P42336). Kind of assay: PI3K Enzyme Assay A2 ([γ-33P]ATP filter plate), PI3Kα. The class given is biochemical. The following applies: Assay A2, 1000 μM ATP. As to the method: (§1) Materials: Lipid kinase substrate, phosphoinositol-4,5-bisphosphate (PIP2), was purchased from Echelon Biosciences (Salt Lake City, Utah). PI3K isoforms α, β, δ and γ were purchased from Millipore (Bedford, Mass.). ATP, MgCh, DTT, EDTA, MOPS and CHAPS were purchased from Sigma-Aldrich (St. Louis, Mo.). The kinase reaction was conducted in clear-bottom 96-well plate from Thermo Fisher Scientific in a final volume of 24 μL. Inhibitors were first diluted serially in DMSO and added to the plate wells before the addition of other reaction components. The final concentration of DMSO in the assay was 0.5%. The PI3K assays were carried out at room temperature in 20 mM MOPS, pH 6.7, 10 mM MgCl2, 5 mM DTT and CHAPS 0.03%. The reaction mixture was prepared containing 50 μM PIP2, kinase and varying concentration of inhibitors. Reactions were initiated by the addition of ATP containing 2.2 μCi [γ-^33P]ATP to a final concentration of 1000 μM. […] Reactions were incubated for 180 min and terminated by the addition of 100 μL of 1 M potassium phosphate pH 8.0, 30 mM EDTA quench buffer. A 100 μL aliquot of the reaction solution was then transferred to 96-well Millipore MultiScreen IP 0.45 μm PVDF filter plate (The filter plate was prewetted with 200 μL 100% ethanol, distilled water, and 1 M potassium phosphate pH 8.0, respectively). The filter plate was aspirated on a Millipore Manifold under vacuum and washed with 18×200 μL wash buffer containing 1 M potassium phosphate pH 8.0 and 1 mM ATP. After drying by aspiration and blotting, the plate was air dried in an incubator at 37° C. overnight. Packard TopCount adapter (Millipore) was then attached to the plate followed with addition of 120 μL Microscint 20 scintillation cocktail (Perkin Elmer) in each well. After the plate sealing, the radioactivity of the product was determined by scintillation counting on Topcount (Perkin-Elmer). IC50 determination was performed by fitting the curve of percent control activity versus the log of the inhibitor concentration using the GraphPad Prism 3.0 software.

The next assay has as its target PI3Kβ (Homo sapiens (Human), UniProt P42338). Kind of assay: PI3K Enzyme Assay A2 ([γ-33P]ATP filter plate), PI3Kβ. The class given is biochemical. Particulars: Assay A2, 1000 μM ATP. As to the method:
as §1, with “software. […] See Table 1 for data related to compounds of the invention.” for “software.”

Chain of PI3Kβ (P42338 whole entry, species assumed): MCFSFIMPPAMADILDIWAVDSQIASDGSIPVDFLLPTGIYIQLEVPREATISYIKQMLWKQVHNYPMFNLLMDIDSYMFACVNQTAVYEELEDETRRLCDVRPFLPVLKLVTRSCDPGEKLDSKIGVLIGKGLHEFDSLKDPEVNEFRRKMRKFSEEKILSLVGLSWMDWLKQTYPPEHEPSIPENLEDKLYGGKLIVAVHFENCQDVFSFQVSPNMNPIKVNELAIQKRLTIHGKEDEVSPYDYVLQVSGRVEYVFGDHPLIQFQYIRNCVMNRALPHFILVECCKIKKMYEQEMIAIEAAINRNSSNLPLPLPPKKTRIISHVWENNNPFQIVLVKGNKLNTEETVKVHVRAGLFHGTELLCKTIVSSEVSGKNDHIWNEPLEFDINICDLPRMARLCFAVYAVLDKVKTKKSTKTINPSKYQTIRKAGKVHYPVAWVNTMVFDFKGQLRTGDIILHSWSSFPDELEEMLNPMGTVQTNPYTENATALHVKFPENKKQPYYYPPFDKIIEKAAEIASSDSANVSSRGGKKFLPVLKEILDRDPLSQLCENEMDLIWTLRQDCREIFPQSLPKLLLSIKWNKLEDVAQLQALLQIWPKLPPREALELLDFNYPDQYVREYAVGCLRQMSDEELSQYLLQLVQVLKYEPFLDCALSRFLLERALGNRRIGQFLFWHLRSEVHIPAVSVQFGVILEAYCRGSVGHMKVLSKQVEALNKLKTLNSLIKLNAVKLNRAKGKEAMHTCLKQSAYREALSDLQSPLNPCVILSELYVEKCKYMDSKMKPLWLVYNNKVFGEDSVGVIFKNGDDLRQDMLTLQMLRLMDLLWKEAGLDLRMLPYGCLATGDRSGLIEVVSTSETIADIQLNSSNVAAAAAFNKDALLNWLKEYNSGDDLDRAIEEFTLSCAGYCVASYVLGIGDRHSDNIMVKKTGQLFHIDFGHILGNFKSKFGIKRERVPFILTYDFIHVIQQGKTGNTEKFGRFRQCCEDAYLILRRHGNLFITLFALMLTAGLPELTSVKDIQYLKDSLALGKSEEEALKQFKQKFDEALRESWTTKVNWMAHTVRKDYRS
Chain of PI3Kβ (P27986 whole entry partner, species assumed): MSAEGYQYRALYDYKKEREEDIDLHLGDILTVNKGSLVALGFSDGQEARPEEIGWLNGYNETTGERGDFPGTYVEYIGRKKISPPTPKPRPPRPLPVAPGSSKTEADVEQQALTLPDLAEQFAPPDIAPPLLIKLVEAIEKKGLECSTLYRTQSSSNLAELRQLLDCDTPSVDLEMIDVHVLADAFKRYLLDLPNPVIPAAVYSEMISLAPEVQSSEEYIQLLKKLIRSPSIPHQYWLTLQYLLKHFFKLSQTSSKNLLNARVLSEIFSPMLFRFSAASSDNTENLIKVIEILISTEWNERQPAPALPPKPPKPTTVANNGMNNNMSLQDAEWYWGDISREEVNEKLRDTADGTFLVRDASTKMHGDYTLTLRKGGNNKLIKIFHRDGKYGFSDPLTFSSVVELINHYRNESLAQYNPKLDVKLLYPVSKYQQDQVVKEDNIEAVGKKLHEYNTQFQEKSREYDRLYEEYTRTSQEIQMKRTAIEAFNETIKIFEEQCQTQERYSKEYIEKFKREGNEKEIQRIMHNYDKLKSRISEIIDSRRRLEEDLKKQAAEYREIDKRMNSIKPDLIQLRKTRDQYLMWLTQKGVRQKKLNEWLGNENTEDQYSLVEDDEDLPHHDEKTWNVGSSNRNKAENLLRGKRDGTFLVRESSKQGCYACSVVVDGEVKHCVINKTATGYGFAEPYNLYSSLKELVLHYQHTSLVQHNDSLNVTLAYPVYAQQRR
Chain of PI3Kα (P42336 whole entry, species assumed, canonical isoform): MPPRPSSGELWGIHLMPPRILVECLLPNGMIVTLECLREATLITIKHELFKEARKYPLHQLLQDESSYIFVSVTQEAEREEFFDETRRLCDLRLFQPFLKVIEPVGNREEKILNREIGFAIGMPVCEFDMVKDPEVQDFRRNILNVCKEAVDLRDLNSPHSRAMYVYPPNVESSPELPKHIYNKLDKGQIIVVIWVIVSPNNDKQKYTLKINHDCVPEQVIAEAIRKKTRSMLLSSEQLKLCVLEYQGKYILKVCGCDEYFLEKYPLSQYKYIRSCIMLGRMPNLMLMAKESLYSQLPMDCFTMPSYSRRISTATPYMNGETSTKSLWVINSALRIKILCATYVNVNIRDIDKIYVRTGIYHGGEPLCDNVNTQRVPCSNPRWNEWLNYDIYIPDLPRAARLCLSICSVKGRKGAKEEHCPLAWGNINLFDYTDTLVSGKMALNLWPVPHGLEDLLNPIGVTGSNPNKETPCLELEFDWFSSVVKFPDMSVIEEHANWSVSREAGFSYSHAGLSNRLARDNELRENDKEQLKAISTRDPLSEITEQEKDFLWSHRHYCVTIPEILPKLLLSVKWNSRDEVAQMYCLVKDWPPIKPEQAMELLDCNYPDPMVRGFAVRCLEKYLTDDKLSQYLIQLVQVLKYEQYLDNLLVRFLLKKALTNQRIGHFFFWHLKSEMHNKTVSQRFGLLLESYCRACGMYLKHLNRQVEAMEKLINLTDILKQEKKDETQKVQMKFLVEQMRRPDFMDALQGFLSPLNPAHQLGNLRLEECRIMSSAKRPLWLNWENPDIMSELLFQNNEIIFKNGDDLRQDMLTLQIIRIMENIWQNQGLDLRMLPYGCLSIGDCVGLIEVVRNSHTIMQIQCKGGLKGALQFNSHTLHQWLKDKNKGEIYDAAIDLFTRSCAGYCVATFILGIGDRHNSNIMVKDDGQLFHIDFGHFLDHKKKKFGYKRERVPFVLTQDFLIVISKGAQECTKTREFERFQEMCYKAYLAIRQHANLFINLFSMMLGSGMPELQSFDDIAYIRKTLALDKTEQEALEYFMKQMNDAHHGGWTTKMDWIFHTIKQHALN
Chain of PI3Kα (P27986 whole entry partner, species assumed, canonical isoform): as the sequence (P27986 whole entry partner, species assumed) above

As to `Cc1csc2nc(C(C)Nc3nc(N)nc4[nH]cnc34)c(-c3cccc(F)c3)c(=O)n12` (stereo not drawn) [Example 11, 7-{1-[(2-amino-9H-purin-6-yl)amino]ethyl}-6-(3-fluorophenyl)-3-methyl-5H-[1,3]thiazolo[3,2-a]pyrimidin-5-one], the IC50 at PI3Kα and against PI3Kβ was > 500 nM each time.

For the molecule `Cc1csc2nc(C(C)Nc3nc(N)nc4[nH]cnc34)c(-c3ccccc3)c(=O)n12` (stereo not drawn) [Example 9, 7-{1-[(2-amino-9H-purin-6-yl)amino]ethyl}-3-methyl-6-phenyl-5H-[1,3]thiazolo[3,2-a]pyrimidin-5-one], the IC50 at PI3Kα and against PI3Kβ was > 500 nM each time.

As to `Cc1csc2nc(C(C)Nc3nc(N)nc4[nH]cnc34)c(-c3cc(F)cc(F)c3)c(=O)n12` (stereo not drawn) [Example 13, 7-{1-[(2-amino-9H-purin-6-yl)amino]ethyl}-6-(3,5-difluorophenyl)-3-methyl-5H-[1,3]thiazolo[3,2-a]pyrimidin-5-one], the IC50 on PI3Kα and against PI3Kβ was > 500 nM each time.
